The subject of experiment [1] is NCI-H23. The experiment can be described thus: NCI one-dose screen. The class given is cell-based, human. To be noted: for Growth Percent: NSCLC NCI-H23, 10 µM single dose. An outline of the steps:
(§1)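 Growth of treated cells is compared with untreated controls to give percent inhibition. Compounds are applied once at 10 μM across the NCI 60 cancer cell panel.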

The test system of experiment [2] is SK-MEL-28. The experiment can be described thus: NCI one-dose screen. The class given is cell-based, human. The following applies: Melanoma SK-MEL-28, 10 µM single dose. An outline of the steps:
(§2)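 Compounds were tested at a single dose of 10 μM across the full NCI-60 cell line panel. Growth was expressed as percent growth relative to untreated control cells, reported as percent inhibition.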

Experiment [3] deals with HOP-92. The experiment can be described thus: NCI one-dose screen. To be noted: NSCLC HOP-92, 10 µM single dose. The class given is cell-based, human. In outline:
(§3)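 At 10 μM, a single concentration, compounds were evaluated for antiproliferative effect in the NCI 60-line screen, with growth expressed relative to untreated control cells.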

For experiment [4], the system named is HCT-15. The experiment can be described thus: NCI one-dose screen. To be noted: Colon HCT-15, 10 µM single dose. Format: cell-based, human. An outline of the steps:
as §3

Experiment [5] relates to BT-549. The experiment can be described thus: NCI one-dose screen. The class given is cell-based, human. The following applies: Breast BT-549, 10 µM single dose. An outline of the steps: as §3
In experiment [6] the test system is OVCAR-3. The experiment can be described thus: NCI one-dose screen. Format: cell-based, human. The following applies: Ovarian OVCAR-3, 10 µM single dose. An outline of the steps: as §3
Experiment [7] concerns T-47D. The experiment can be described thus: NCI one-dose screen. To be noted: Breast T-47D, 10 µM single dose. Format: cell-based, human. An outline of the steps: as §3
Experiment [8] deals with UACC-62. The experiment can be described thus: NCI one-dose screen. The class given is cell-based, human. The following applies: Melanoma UACC-62, 10 µM single dose. In outline: as §3
In experiment [9] the test system is MOLT-4. The experiment can be described thus: NCI one-dose screen. The class given is cell-based, human. To be noted: for Growth Percent: Leukemia MOLT-4, 10 µM single dose. An outline of the steps: as §1
Experiment [10] relates to PC-3. The experiment can be described thus: NCI one-dose screen. The class given is cell-based, human. The following applies: Prostate PC-3, 10 µM single dose. An outline of the steps: as §2
The subject of experiment [11] is K-562. The experiment can be described thus: NCI one-dose screen. Format: cell-based, human. The following applies: Leukemia K-562, 10 µM single dose. In outline: as §3
Experiment [12] relates to KM12. The experiment can be described thus: NCI one-dose screen. The following applies: for Growth Percent: Colon KM12, 10 µM single dose. The class given is cell-based, human. An outline of the steps: as §1
The test system of experiment [13] is full NCI 60 cell panel. The experiment can be described thus: NCI one-dose screen, whole panel statistics. Format: cell-based, human. To be noted: 1.00E-5 Molar; for Mean Growth Percent: mean over panel. The method, then:
All of the synthesised structures were selected and submitted to NCI based on computer modelling techniques and the degree of diversity of structures for the evaluation of their antiproliferative activity. The 20 synthesised compounds were selected with their respective NCI codes [NCS D-820157- NCS D-820176] for the inhibition percent assay at an initial single dose of 10 μM on the full NCI 60 cell panel, where the mean graph of the percent growth for all compounds on the full NCI cell panel is evaluated, compared to the untreated control cells (Supplementary Material). In vitro cell line inhibition % of all synthesised compounds is represented in (Table 1 of Supplementary Material).
All of the synthesised compounds (20) were submitted to NCI and selected for in vitro anticancer assay against a panel of 60 cancer cell lines. The methodology of assay and calculations is as reported.

In experiment [14] the target is T1, HDAC6 (Homo sapiens, UniProt Q9UBN7).
T1 construct: purchased BPS Bioscience 50006
T1 sequence (Q9UBN7 1-1215): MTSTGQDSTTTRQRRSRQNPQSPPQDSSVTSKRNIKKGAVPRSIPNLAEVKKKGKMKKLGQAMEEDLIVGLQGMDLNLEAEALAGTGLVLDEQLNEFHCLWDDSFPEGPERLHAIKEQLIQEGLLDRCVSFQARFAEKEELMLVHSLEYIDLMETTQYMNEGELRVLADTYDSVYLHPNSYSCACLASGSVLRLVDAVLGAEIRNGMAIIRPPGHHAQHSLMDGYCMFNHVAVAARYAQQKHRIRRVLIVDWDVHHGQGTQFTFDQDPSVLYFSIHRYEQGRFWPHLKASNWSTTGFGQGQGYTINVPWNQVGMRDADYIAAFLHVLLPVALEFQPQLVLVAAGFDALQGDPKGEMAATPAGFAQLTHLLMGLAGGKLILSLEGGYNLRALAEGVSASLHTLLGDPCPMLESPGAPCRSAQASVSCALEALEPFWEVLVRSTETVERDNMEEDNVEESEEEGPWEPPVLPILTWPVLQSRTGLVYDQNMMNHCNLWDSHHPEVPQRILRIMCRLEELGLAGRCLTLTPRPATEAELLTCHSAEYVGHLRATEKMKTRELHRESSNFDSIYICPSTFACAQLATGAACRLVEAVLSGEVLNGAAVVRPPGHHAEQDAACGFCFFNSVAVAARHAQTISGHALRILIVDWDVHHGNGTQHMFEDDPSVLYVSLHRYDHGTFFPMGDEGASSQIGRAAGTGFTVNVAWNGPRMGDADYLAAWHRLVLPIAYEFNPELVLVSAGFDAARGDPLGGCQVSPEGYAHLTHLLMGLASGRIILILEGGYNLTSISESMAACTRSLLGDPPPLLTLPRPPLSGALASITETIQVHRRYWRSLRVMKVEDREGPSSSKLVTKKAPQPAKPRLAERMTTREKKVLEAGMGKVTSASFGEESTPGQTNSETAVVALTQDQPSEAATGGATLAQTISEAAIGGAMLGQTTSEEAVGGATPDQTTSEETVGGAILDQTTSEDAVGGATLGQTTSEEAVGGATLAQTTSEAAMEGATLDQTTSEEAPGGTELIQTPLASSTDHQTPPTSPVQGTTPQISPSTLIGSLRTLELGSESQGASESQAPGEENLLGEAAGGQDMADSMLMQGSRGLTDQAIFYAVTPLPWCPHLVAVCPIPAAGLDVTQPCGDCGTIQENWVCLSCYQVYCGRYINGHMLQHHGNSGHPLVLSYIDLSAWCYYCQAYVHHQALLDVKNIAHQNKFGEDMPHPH
The experiment can be described thus: In vitro HDAC6 inhibitory assay (BPS Bioscience, fluorogenic). Format: biochemical. The following applies: 10 µM. The procedure:
(1 picture or pasted object on this page, not shown here)
HDAC activity assays were performed in duplicates at each concentration. The

Values joined by “and” are separate entries in the source; they are usually repeats but may differ in a detail not shown here. Identical values can stand only once.

As a reminder, the inhibition is the percentage by which the read-out fell short of the control.

Take `Cc1c(C(=O)NO)sc2ncnc(Nc3ccc(NC(=O)Nc4ccccc4)cc3)c12` [Compound 7a, 1–(4-(6-(hydroxycarbamoyl)-5-methylthieno[2,3-d]pyrimidin-4-ylamino)phenyl)-3-phenylurea]: the “Growth Percent” value in experiment [1] was 101.19%; in experiment [2], 104.3% and 104.39%; in experiment [3], 117.3% and 117.36%; in [4], 99.1% and 99.16%; in experiment [5] it was 87.6%; in experiment [6], 105.4% and 105.48%. Further, the “Growth Percent” value in experiment [7] is 95.7% and 95.72%; in experiment [8], 101.7% and 101.73%; in experiment [9] it was 103.9% and 103.94%; in experiment [10], 97.3% and 97.34%; in experiment [11], 105.9% and 105.92%; in [12], 94.8% and 94.85%. Also, the “Delta (one dose mean graph)” value in experiment [13] was 24.69%. In addition, the “Range (one dose mean graph)” value in [13] amounted to 48.09%. In addition, in experiment [13], the “Mean Growth Percent” value stood at 99.34%. Also, the “Mean % inhibition HDAC6” value in [14] is listed as 5%. The compound further came in with an inhibition at 10 µM in experiment [14] of 7%.

On to `COc1cccc(NC(=O)Nc2ccc(Nc3ncnc4sc(C(=O)NO)c(C)c34)cc2)c1` [Compound 7b, 1–(4-(6-(hydroxycarbamoyl)-5-methylthieno[2,3-d]pyrimidin-4-ylamino)phenyl)-3–(3-methoxyphenyl)urea], for which the “Growth Percent” value in [1] is 98.8% and 98.89%; in experiment [2], 111.1% and 111.16%; in experiment [3], 108.4% and 108.42%; in [4], 99.0% and 99.07%; in [5], 99.5% and 99.56%; in [6], 106.5% and 106.55%. Further, the “Growth Percent” value in experiment [7] is 99.6% and 99.67%; in experiment [8] it was 96.7% and 96.74%; in experiment [9] it was 112.4% and 112.45%; in experiment [10], 101.6% and 101.65%; in experiment [11] it was 108.5% and 108.57%; in experiment [12], 102.7% and 102.79%. Also, in [13], the “Delta (one dose mean graph)” value turned out to be 18.14%. In addition, the “Range (one dose mean graph)” value in [13] amounted to 45.12%. The “Mean Growth Percent” value in experiment [13] was determined as 101.61%. For the same compound, the “Mean % inhibition HDAC6” value in [14] was determined as 6%. The inhibition at 10 µM in experiment [14] was 8%.

With `Cc1c(C(=O)NO)sc2ncnc(Nc3ccc(NC(=O)Nc4cccc(C(F)(F)F)c4)cc3)c12` [Compound 7c, 1–(4-(6-(hydroxycarbamoyl)-5-methylthieno[2,3-d]pyrimidin-4-ylamino)phenyl)-3–(3-(trifluoromethyl)phenyl)urea], the inhibition at 10 µM in experiment [1] (Homo sapiens, NSCLC NCI-H23, 10 μM) came to 11.1%; in experiment [9] (Homo sapiens, leukaemia MOLT-4, 10 μM), 11.8%; in experiment [12] (Homo sapiens, colon KM12, 10 μM), 33.7%; in [14] it was 8%. Also, the “Growth Percent” value in experiment [1] was 88.9% and 88.92%; in experiment [2] it was 108.2% and 108.23%; in [3], 119.3% and 119.39%; in [4], 97.7% and 97.77%; in experiment [5] it was 115.1% and 115.17%; in experiment [6], 104.2% and 104.27%. Further, the “Growth Percent” value in [7] was 96.3% and 96.39%; in experiment [8], 96.4%; in experiment [9], 88.2% and 88.24%; in [10] it was 91.1% and 91.19%; in experiment [11], 91.7% and 91.72%; in experiment [12] it was 66.3% and 66.34%. For the same compound, the “Delta (one dose mean graph)” value in experiment [13] is listed as 43.18%. Besides, the “Range (one dose mean graph)” value in [13] came out at 65.35%. Further, the “Mean Growth Percent” value in [13] is given as 97.22%.

These data come from paper PMC8253220, “Molecular design, synthesis and in vitro biological evaluation of thienopyrimidine–hydroxamic acids as chimeric kinase HDAC inhibitors: a challenging approach to combat cancer” (Journal of Enzyme Inhibition and Medicinal Chemistry, 2021).
